According to EP1509215B1, “TREATMENT OR PREVENTION OF UROGENITAL ATROPHY AND ITS SYMPTOMS IN WOMEN” (Hormos Medical Ltd., priority 2002, dated 2003):

Assays:
vaginal epithelium = assay: Cervical smear: maturity index / karyopyknosis index of the vaginal epithelium, clinical phase I-II study; conditions: for Change in maturity index for superficial cells (MI3 mean) / Change in maturity index for parabasal cells (MI1 mean): after 3 months; for Change in maturity index for superficial cells (MI3 mean): index 100 full estrogen, index 0 no estrogenicity; for Change in maturity index for parabasal cells (MI1 mean): index 100 no estrogenicity, index 0 full estrogen; for change from baseline to post-treatment in the karyopyknosis index for superficial cells: individuals, start to 12 weeks, ospemifene 30, 60, 90 mg daily, raloxifene 60 mg daily, result in words; for increase in the karyopyknosis index for superficial cells: 12 weeks
Description: Tolerability and pharmacokinetics were also assessed. Raloxifene (60 mg daily) was used as reference. Ospemifene was given perorally at the doses of 30, 60 and 90 mg daily. There were 29 volunteers at each dose level, as well as in the raloxifene group. Ospemifene was administered in gelatine capsules containing either 30, 60 or 90 mg of ospemifene. […] The vaginal epithelium was assessed by karyopyknosis index which is a well known assessment method among the skilled persons. In this method, the vaginal fraction of the cervical smears is estimated as the percentage of the number of cells from different layers: the parabasal cell layer; the intermediate cell layer; and the superficial cell layer. Estrogenicity is seen by a shift towards superficial cell fraction. In postmenopausal women this fraction usually is close to zero and estradiol treatment increases the fraction close to 100. Samples were taken before and after the treatment (at 3 months).
Table 1. […] (MI 1: index 100 no estrogenicity; index 0 full estrogen, and MI 3: index 100 full estrogen; index 0 no estrogenicity).

endometrium [1] = assay: Thickness of the endometrium by ultrasonography, clinical phase I-II study; format: in vivo, healthy postmenopausal female volunteers; conditions: for increase in the thickness of the endometrium (average): 3 months, statistically not significant
Description: (§1) A clinical phase I-II study was carried out to study the effects of ospemifene on endometrial thickness, endometrial pathology, (biopsy taken by curettage as described by Vuopala et al, 1982) and cervical smear in healthy postmenopausal female volunteers in the age range 55 to 69 years. Tolerability and pharmacokinetics were also assessed. Raloxifene (60 mg daily) was used as reference. Ospemifene was given perorally at the doses of 30, 60 and 90 mg daily. […] Ospemifene was administered in gelatine capsules containing either 30, 60 or 90 mg of ospemifene.
(§2) This effect is clearly weaker than that seen with estrogen replacement therapy. […] The measured values were always smaller than 8 mm, which is considered to be a thickness which is indicative for a physiologically significant estrogenicity of SERMs like tamoxifen (Hann et al, 1997; Lahti et al, 1993).

endometrium [2] = assay: Endometrial histology (biopsy taken by curettage), clinical phase I-II study; format: in vivo, healthy postmenopausal female volunteers; conditions: 30, 60, 90 mg daily, 3 months
Description: as §1, §2

[3] = Tolerability in the clinical studies; format: in vivo, posmenopausal women
Description: as §1
Based on the present data, the optimal clinical dose is expected to be higher than 25 mg daily and lower than 100 mg daily. A particularly preferable daily dose is found in the range 30 to 90 mg. […] In addition, ospemifene decreases total and LDL cholesterol, increases HDL cholesterol, and prevents osteoporosis and early stage breast cancer.

Description for urogenital atrophy: In this study, raloxifene (60 mg/day) or ospemifene at different doses were given to elderly female volunteers for a period of 3 months.
77 were treated with 25-30 mg, 78 with 50-60 mg, 78 with 90-100 mg and 8 with 200 mg daily dose of ospemifene. In the control groups, 47 were treated with placebo and 29 with raloxifene. […] The symptoms include both vaginal and urinary symptoms such as vaginal discomfort with irritation, itching, burning, smarting, postcoital bleeding, vulvar itching and/or malodorous discharge and leukorrhea.

Question: Which results are given for O=C(c1ccc(OCCN2CCCCC2)cc1)c1c(-c2ccc(O)cc2)sc2cc(O)ccc12 [Raloxifene, reference compound]?
Answer: Change in maturity index for superficial cells (MI3 mean) (vaginal epithelium; 60 mg daily perorally): -0.3; Change in maturity index for parabasal cells (MI1 mean) (vaginal epithelium; 60 mg daily perorally): -2; change from baseline to post-treatment in the karyopyknosis index for superficial cells (vaginal epithelium): no one in the raloxifene group (Fig. 1D) had a significant change

Question: Which “Change in maturity index for superficial cells (MI3 mean)” value (from here on “Change in maturity index … (MI3 mean)”) (vaginal epithelium; 30 mg daily perorally) does the source give for OCCOc1ccc(/C(=C(/CCCl)c2ccccc2)c2ccccc2)cc1 [Ospemifene, (deaminohydroxy)toremifene] here?
Answer: The value was “+12.4”.

Question: And the “Change in maturity index for parabasal cells (MI1 mean)” value (from here on “Change in maturity index … (MI1 mean)”) (vaginal epithelium; 30 mg daily perorally)?
Answer: The value was -40.

Question: And the “Change in maturity index … (MI3 mean)” value (vaginal epithelium; 60 mg daily perorally)?
Answer: The value was “+5.5”.

Question: What about the “Change in maturity index … (MI1 mean)” value (vaginal epithelium; 60 mg daily perorally) of the same compound?
Answer: Its value is -26.

Question: And the “Change in maturity index … (MI3 mean)” value (vaginal epithelium; 90 mg daily perorally)?
Answer: Its value is “+12.5”.

Question: What about the “Change in maturity index … (MI1 mean)” value (vaginal epithelium; 90 mg daily perorally) of the same compound?
Answer: Its value is -48.

Question: And the “estrogenic effect in the cervical smear” value (vaginal epithelium; 30, 60, 90 mg daily, 3 months)?
Answer: The value was “weak but statistically significant estrogenic effect”.

Question: What about the “pathological changes in cervical smear samples” value (vaginal epithelium; 30, 60, 90 mg daily, 3 months) of the same compound?
Answer: The value was “No pathological changes”.

Question: And the “increase in the karyopyknosis index for superficial cells” value (vaginal epithelium; individual cases, all ospemifene groups (30, 60, 90 mg daily), all cases except one)?
Answer: Its value is under 40.

Question: And the “change from baseline to post-treatment in the karyopyknosis index for superficial cells” value (vaginal epithelium)?
Answer: Its value is “slight increases”.

Question: What about the “increase in the karyopyknosis index for superficial cells” value (vaginal epithelium; one case in the 90 mg group) of the same compound?
Answer: The value was 45.

Question: And the “increase in the thickness of the endometrium (average)” value (from here on “increase in the thickness”) (endometrium [1]; 30 mg daily)?
Answer: The value was 0.2 mm.

Question: And the “increase in the thickness” value (endometrium [1]; 60 mg daily)?
Answer: Its value is 0.5 mm.

Question: And the “increase in the thickness” value (endometrium [1]; 90 mg daily)?
Answer: The value was 0.5 mm.

Question: And the “thickness of the endometrium, measured values” (endometrium [1]; all measured values, 30, 60, 90 mg daily)?
Answer: The value was “smaller than 8 mm”.

Question: And the “malignant findings in the endometrium” value (endometrium [2])?
Answer: The value was “no malignant findings”.

Question: What about the “estrogenic effect on endometrial histology” value (endometrium [2]; clearly weaker than with estrogen replacement therapy) of the same compound?
Answer: The value was “weak estrogenic effect”.

Question: What about the tolerability [3] of the same compound?
Answer: The tolerability was “excellent tolerability”.

Question: What about the vaginal atrophy (urogenital atrophy; 30, 60 and 90 mg daily, 3 months, elderly female volunteers) of the same compound?
Answer: The vaginal atrophy was “significant decrease in vaginal atrophy”.

Question: And the “symptoms associated with urogenital atrophy (vaginal and urinary)” value (urogenital atrophy; spontaneous reports of some subjects, 25-200 mg daily, 241 women treated)?
Answer: The value was “alleviation of the symptoms associated with urogenital atrophy”.
